# Structures can show the parent of a compound that is named as a salt.
# Columns and labels:
# [1] = tested on: female patients with IBS (non-constipated); assay: Relief of IBS symptoms in double-blind, placebo controlled clinical trials of alosetron, stratified by 5HTT genotype; type: in vivo, human; conditions: in each of the three 5HTT genotypes
# Text: FIG. 1 is a graph based on data collected from female patients enrolled in clinical trials of alosetron for the treatment of IBS. The study population was comprised of non-constipated individuals with IBS. The subjects were divided into 5HTT genotypes. Of the 219 subjects, 71(32.4%) were genotype del/del (deletion/deletion, alternatively denoted as “1/1”) 5HTT, 75 (34.2%) were genotype del/ins (deletion/insertion, alternatively denoted as “1/2”) 5HTT and 73 (33.3%) were genotype ins/ins (insert/insert, alternatively denoted as “2/2”) 5HTT. […] “Response” was defined as relief of IBS symptoms (abdominal pain and discomfort) during six weeks of a twelve week treatment study. Two hundred and nineteen subjects, received either alosetron (102 subjects) or matched placebo (117 subjects). The proportion of patients achieving response following treatment with alosetron was 68% (21/31) for del/del 5HTT, 64% (21/33) for del/ins 5HTT and 58% (22/38) for ins/ins 5HTT. The proportion of patients achieving response following treatment with placebo was 58% (23/40) for del/del 5HTT, 38% (16/42) for del/ins 5HTT and 34% (12/35) for ins/ins 5HTT. […]
# The subjects' response to alosetron in the clinical trial setting was reviewed and correlated with genotype. […] The incidence of various other effects, including constipation, was also recorded. […]
# [2] = tested on: patients with Irritable Bowel Syndrome (IBS); conditions: double blind, placebo controlled studies; cited from earlier work
compound,measurement,setting,value
"Cc1[nH]cnc1CN1CCc2c(c3ccccc3n2C)C1=O [alosetron, Alosetron hydrochloride]",effectiveness compared with placebo in relieving IBS symptoms,[1],more effective than placebo
same,effect on pain and bowel function in patients with IBS,[2],reduce pain and improve bowel function
